In patent publication US20040192641A1, “Special preparation of anticancer drugs made by novel nanotechnology” (priority 2003, published 2004):

How the values were obtained:
[1] = tested on: L1210; test: Growth of transplanted tumor, L1210 (tumor weight); type: in vivo, mice; conditions: 20 mg/kg i.p. from second day, tumor weight on 12th day
Protocol: Male mice, weight 20-22 g, were used in the experiment. 1×10^7 tumor cells were injected to mouse and PK-HHT-NP injected intraperitoneally began second day. All mice were sacrificed on the 12th days, isolated the tumor and weighed and calculated the inhibition rate of tumor weight.
Male mice, weight 20-22 g, were used in the experiment. 1×10^7 tumor cells were injected to mouse and CUR and PK-CUR-NP injected intraperitoneally began second day. All mice were sacrificed on the 12th days, isolated the tumor and weighed and calculated the inhibition rate of tumor weight.
Male mice, weight 20-22 g, were used in the experiment. 1×10^7 tumor cells were injected to mouse and ELE injected intraperitoneally began second day. All mice were sacrificed on the 12th days, isolated the tumor and weighed and calculated the inhibition rate of tumor weight.
Male mice, weight 20-22 g, were used in the experiment. 1×10^7 tumor cells were injected to mouse and CPT injected intraperitoneally began second day. All mice were sacrificed on the 12th days, isolated the tumor and weighed and calculated the inhibition rate of tumor weight.

[2] = tested on: Human promyelocytic leukemia cells (HL-60); test: Induced differentiation of HL-60 cells (NBT reduction); type: cell-based; conditions: 0.1 μg/ml (10×10^−7 g/ml)
Protocol: (§1) Human promyelocytic leukemia cells (HL-60) were grown in RPMI Medium 1640 supplemented with 10% (v/v) heat-inactivated FBS (56° C. for 30 min) at 37° C. in a humidified 95% air/5% CO2 atmosphere. Cells were seeded at a level of 2×10^5 cells/ml. Cells were allowed to attain a maximum density of 1.2×10^6 cells/ml before being passed by dilution into fresh medium to a concentration of 2×10^5 cells/ml. Differentiation was induced in HL-60 cells by treatment with 0.1 μg/ml ([…]) of CUR or PK-CUR-NP. Cell differentiation was measured by the ability of cells to reduce NBT.
as §1, with “ELE” for “CUR”, “PK-ELE-NP.” for “PK-CUR-NP.”, “NBT. Increasing NBT % means that cancer cells are differentiation.” for “NBT.”
as §1, with “CPT” for “CUR”, “PK-CPT-NP.” for “PK-CUR-NP.”, “NBT. Increasing NBT % means that cancer cells are differentiation.” for “NBT.”

Molecule | Inhibition (%) of transplanted tumor [1] [%] | NBT % (percentage of cells capable of reducing NBT) [2] [%]
CC[C@@]1(O)C(=O)OCc2c1cc1n(c2=O)Cc2cc3ccccc3nc2-1 [CPT, Camptothecin] | 68.5 ± 9.8 | 65.8 ± 9.1
C=C1C[C@@]2(O)O[C@@]3(C[C@H]2C(C)C)[C@@H](C)CC[C@@H]13 [CUR, Curcumol] | 70.8 ± 9.0 | 68.5 ± 8.5
COC(=O)C[C@](O)(CCCC(C)(C)O)C(=O)O[C@@H]1C(OC)=C[C@]23CCCN2CCc2cc4c(cc2[C@H]13)OCO4 [HHT, Homoharringtonine] | 87 ± 9 | 
Eelemene | 71.8 ± 9.5 | 69.5 ± 10.1
